According to PubChem BioAssay (NCI):
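Protocol summary: plate cells (96-well), add compound at 5 concentrations, incubate 48 h, interpolate endpoints linearly. At the GI50, growth is halved. TGI: concentration producing complete growth inhibition.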

What was measured:
Assay in all cases: inhibition of tumour cell growth, NCI panel, 48 h
BT-549 breast = tested on: BT-549 breast
ACHN renal = tested on: ACHN renal
RPMI-8226 leukemia = tested on: RPMI-8226 leukemia
SNB-19 CNS = tested on: SNB-19 CNS
MDA-MB-231 breast = tested on: MDA-MB-231 breast
OVCAR-5 ovarian = tested on: OVCAR-5 ovarian
NCI/ADR-RES ovarian = tested on: NCI/ADR-RES ovarian
DU-145 prostate = tested on: DU-145 prostate
HCT-116 colon = tested on: HCT-116 colon
SF-539 CNS = tested on: SF-539 CNS
SW-620 colon = tested on: SW-620 colon
MOLT-4 leukemia = tested on: MOLT-4 leukemia
UACC-62 melanoma = tested on: UACC-62 melanoma
MCF7 breast = tested on: MCF7 breast
T-47D breast = tested on: T-47D breast
HOP-62 NSCLC = tested on: HOP-62 NSCLC
SNB-75 CNS = tested on: SNB-75 CNS
UO-31 renal = tested on: UO-31 renal
HT29 colon = tested on: HT29 colon
SF-268 CNS = tested on: SF-268 CNS
UACC-257 melanoma = tested on: UACC-257 melanoma
U251 CNS = tested on: U251 CNS
NCI-H23 lung = tested on: NCI-H23 lung
MALME-3M melanoma = tested on: MALME-3M melanoma
M14 melanoma = tested on: M14 melanoma
K-562 leukemia = tested on: K-562 leukemia
HS 578T breast = tested on: HS 578T breast
SK-MEL-28 melanoma = tested on: SK-MEL-28 melanoma
A549 NSCLC = tested on: A549 NSCLC
SK-MEL-2 melanoma = tested on: SK-MEL-2 melanoma
TK-10 renal = tested on: TK-10 renal
KM12 colon = tested on: KM12 colon
SR leukemia = tested on: SR leukemia
SK-MEL-5 melanoma = tested on: SK-MEL-5 melanoma
HCC-2998 colon = tested on: HCC-2998 colon
OVCAR-8 ovarian = tested on: OVCAR-8 ovarian
COLO 205 colon = tested on: COLO 205 colon
MDA-MB-435 = tested on: MDA-MB-435
HCT-15 colon = tested on: HCT-15 colon
SK-OV-3 ovarian = tested on: SK-OV-3 ovarian
786-0 renal = tested on: 786-0 renal
NCI-H522 lung = tested on: NCI-H522 lung
LOX IMVI melanoma = tested on: LOX IMVI melanoma
NCI-H460 lung = tested on: NCI-H460 lung
SN12C renal = tested on: SN12C renal
EKVX NSCLC = tested on: EKVX NSCLC
OVCAR-4 ovarian = tested on: OVCAR-4 ovarian
IGROV1 ovarian = tested on: IGROV1 ovarian
PC-3 prostate = tested on: PC-3 prostate
OVCAR-3 ovarian = tested on: OVCAR-3 ovarian
SF-295 CNS = tested on: SF-295 CNS
CCRF-CEM leukemia = tested on: CCRF-CEM leukemia
RXF 393 renal = tested on: RXF 393 renal
NCI-H226 lung = tested on: NCI-H226 lung
CAKI-1 renal = tested on: CAKI-1 renal
HOP-92 NSCLC = tested on: HOP-92 NSCLC
A498 renal = tested on: A498 renal

CCCCn1c(C)c(C)c2c1NN=C(C#N)S2(=O)=O
TGI (BT-549 breast): > 100 µM
TGI (ACHN renal): > 100 µM
TGI (RPMI-8226 leukemia): > 100 µM
TGI (SNB-19 CNS): > 100 µM
TGI (MDA-MB-231 breast): > 100 µM
TGI (OVCAR-5 ovarian): > 100 µM
TGI (NCI/ADR-RES ovarian): > 100 µM
TGI (DU-145 prostate): > 100 µM
TGI (HCT-116 colon): > 100 µM
TGI (SF-539 CNS): > 100 µM
TGI (SW-620 colon): > 100 µM
TGI (MOLT-4 leukemia): > 100 µM
TGI (UACC-62 melanoma): > 100 µM
TGI (MCF7 breast): > 100 µM
TGI (T-47D breast): > 100 µM
TGI (HOP-62 NSCLC): > 100 µM
TGI (SNB-75 CNS): > 100 µM
TGI (UO-31 renal): > 100 µM
TGI (HT29 colon): > 100 µM
TGI (SF-268 CNS): > 100 µM
TGI (UACC-257 melanoma): > 100 µM
TGI (U251 CNS): > 100 µM
TGI (NCI-H23 lung): > 100 µM
TGI (MALME-3M melanoma): > 100 µM
TGI (M14 melanoma): > 100 µM
TGI (K-562 leukemia): > 100 µM
TGI (HS 578T breast): > 100 µM
TGI (SK-MEL-28 melanoma): > 100 µM
TGI (A549 NSCLC): > 100 µM
TGI (SK-MEL-2 melanoma): > 100 µM
TGI (TK-10 renal): > 100 µM
TGI (KM12 colon): > 100 µM
TGI (SR leukemia): > 100 µM
TGI (SK-MEL-5 melanoma): > 100 µM
TGI (HCC-2998 colon): > 100 µM
TGI (OVCAR-8 ovarian): > 100 µM
TGI (COLO 205 colon): > 100 µM
TGI (MDA-MB-435): > 100 µM
TGI (HCT-15 colon): > 100 µM
TGI (SK-OV-3 ovarian): > 100 µM
TGI (786-0 renal): > 100 µM
TGI (NCI-H522 lung): > 100 µM
TGI (LOX IMVI melanoma): > 100 µM
TGI (NCI-H460 lung): > 100 µM
TGI (SN12C renal): > 100 µM
TGI (EKVX NSCLC): > 100 µM
TGI (OVCAR-4 ovarian): > 100 µM
TGI (IGROV1 ovarian): > 100 µM
TGI (PC-3 prostate): > 100 µM
TGI (OVCAR-3 ovarian): > 100 µM

COc1cc(-c2cc(C(=O)Nc3nc4ccccc4s3)nc3cc(-c4ccccc4)nn23)cc(OC)c1OC
GI50 (SF-295 CNS): 10.6 µM
TGI (SF-295 CNS): 32.7 µM
GI50 (BT-549 breast): 6.33 µM
TGI (BT-549 breast): 47 µM
GI50 (ACHN renal): 45.7 µM
TGI (ACHN renal): > 100 µM
GI50 (RPMI-8226 leukemia): > 100 µM
TGI (RPMI-8226 leukemia): > 100 µM
GI50 (SNB-19 CNS): 16.7 µM
TGI (SNB-19 CNS): 69.5 µM
GI50 (CCRF-CEM leukemia): 54.1 µM
TGI (CCRF-CEM leukemia): > 100 µM
GI50 (MDA-MB-231 breast): 5.63 µM
TGI (MDA-MB-231 breast): 69.2 µM
GI50 (OVCAR-5 ovarian): > 100 µM
TGI (OVCAR-5 ovarian): > 100 µM
GI50 (NCI/ADR-RES ovarian): 19.6 µM
TGI (NCI/ADR-RES ovarian): > 100 µM
GI50 (DU-145 prostate): 65 µM
TGI (DU-145 prostate): > 100 µM
GI50 (HCT-116 colon): 4.51 µM
TGI (HCT-116 colon): > 100 µM
GI50 (SF-539 CNS): 1.31 µM
TGI (SF-539 CNS): 9.09 µM
GI50 (MOLT-4 leukemia): > 100 µM
TGI (MOLT-4 leukemia): > 100 µM
GI50 (UACC-62 melanoma): 14.4 µM
TGI (UACC-62 melanoma): 80.4 µM
GI50 (MCF7 breast): 22.4 µM
TGI (MCF7 breast): > 100 µM
GI50 (T-47D breast): 21.4 µM
TGI (T-47D breast): > 100 µM
GI50 (HOP-62 NSCLC): 9.87 µM
TGI (HOP-62 NSCLC): 27.2 µM
GI50 (SNB-75 CNS): 2.77 µM
TGI (SNB-75 CNS): 16.1 µM
GI50 (UO-31 renal): > 100 µM
TGI (UO-31 renal): > 100 µM
GI50 (SF-268 CNS): 4.5 µM
TGI (SF-268 CNS): 48.8 µM
GI50 (RXF 393 renal): 6.22 µM
TGI (RXF 393 renal): 22.1 µM
GI50 (U251 CNS): 5.14 µM
TGI (U251 CNS): 32.6 µM
GI50 (NCI-H23 lung): 11.5 µM
TGI (NCI-H23 lung): > 100 µM
GI50 (MALME-3M melanoma): 12.4 µM
TGI (MALME-3M melanoma): 56.2 µM
GI50 (M14 melanoma): 2.39 µM
TGI (M14 melanoma): > 100 µM
GI50 (NCI-H226 lung): 27.5 µM
TGI (NCI-H226 lung): > 100 µM
GI50 (K-562 leukemia): 25.4 µM
TGI (K-562 leukemia): > 100 µM
GI50 (CAKI-1 renal): 53.7 µM
TGI (CAKI-1 renal): > 100 µM
GI50 (HS 578T breast): 4.7 µM
TGI (HS 578T breast): > 100 µM
GI50 (SK-MEL-28 melanoma): 3.34 µM
TGI (SK-MEL-28 melanoma): > 100 µM
GI50 (SK-MEL-2 melanoma): 11.2 µM
TGI (SK-MEL-2 melanoma): 27.7 µM
GI50 (TK-10 renal): 11.9 µM
TGI (TK-10 renal): 32.7 µM
GI50 (KM12 colon): 22.6 µM
TGI (KM12 colon): > 100 µM
GI50 (SR leukemia): 19.7 µM
TGI (SR leukemia): 52.5 µM
GI50 (HOP-92 NSCLC): 0.775 µM
TGI (HOP-92 NSCLC): 5.24 µM
GI50 (SK-MEL-5 melanoma): 13.8 µM
TGI (SK-MEL-5 melanoma): > 100 µM
GI50 (HCC-2998 colon): > 100 µM
TGI (HCC-2998 colon): > 100 µM
GI50 (OVCAR-8 ovarian): 5.37 µM
TGI (OVCAR-8 ovarian): > 100 µM
GI50 (MDA-MB-435): 2.61 µM
TGI (MDA-MB-435): 40.3 µM
GI50 (HCT-15 colon): > 100 µM
TGI (HCT-15 colon): > 100 µM
GI50 (SK-OV-3 ovarian): 12.5 µM
TGI (SK-OV-3 ovarian): 27.9 µM
GI50 (A498 renal): 9.29 µM
TGI (A498 renal): 36.7 µM
GI50 (786-0 renal): 2.59 µM
TGI (786-0 renal): 12.8 µM
GI50 (NCI-H522 lung): 1.96 µM
TGI (NCI-H522 lung): 7.82 µM
GI50 (LOX IMVI melanoma): 5.57 µM
TGI (LOX IMVI melanoma): > 100 µM
GI50 (NCI-H460 lung): 29.1 µM
TGI (NCI-H460 lung): > 100 µM
GI50 (SN12C renal): 85.1 µM
TGI (SN12C renal): > 100 µM
GI50 (EKVX NSCLC): 42.9 µM
TGI (EKVX NSCLC): > 100 µM
GI50 (OVCAR-4 ovarian): > 100 µM
TGI (OVCAR-4 ovarian): > 100 µM
GI50 (IGROV1 ovarian): 56.3 µM
TGI (IGROV1 ovarian): > 100 µM
GI50 (PC-3 prostate): > 100 µM
TGI (PC-3 prostate): > 100 µM
GI50 (OVCAR-3 ovarian): 13.3 µM
TGI (OVCAR-3 ovarian): 52.1 µM
